Measurements published in patent US9861606B2, “Therapeutic for treating inflammatory lung disorders” (University College Cardiff Consultants Limited, priority 2012, dated 2018).

Key:
BalbC mice [1] = experiment: Bronchial hyper-reactivity in ovalbumin-sensitised, ovalbumin-challenged mouse model of asthma; type: in vivo; details: nebulised 3 μM; methacholine up to and including 30 mg/ml
Method: FIG. 13. The calcilytic, NPS89636, prevents ovalbumin-induced BHR in methacholine challenged mice. Mice were sensitised on days 0 and 5 by an i.p. injection of 100 microgram/mouse of ovalbumin (OVA) and 50 mg/mouse aluminium hydroxide in PBS. Fourteen days after the last injection, mice were challenged by inhalation of a 0.5% OVA aerosol in PBS twice on the same day, 4 h apart. Mice were treated with nebulised NPS89636 (3 micromolar) or vehicle (0.3% DMSO) one hour before and three hours after the last OVA exposure. Measurements of BHR following methacholine challenge were taken by plethysmography 24 hours before and after the last OVA inhalation challenge.
Penh was recorded by plethysmography during methacholine challenge, as above (Penh before treatment). 24 hours later, the mice were challenged with 0.5% nebulised OVA (in PBS w/v) in the absence or presence of nebulised NPS89636 (or 0.3% DMSO vehicle) by inhalation. The time-course of this challenge protocol consisted of: […]
Male BalbC mice (˜25 g) purchased from Harlan and allowed to acclimatise for 1 week prior to experiment. […] Thirteen days after the last injection, Penh was recorded by plethysmography during methacholine challenge, as described above (Penh before treatment). […]
Bronchoalveolar lavage was performed using three times 1 ml of PBS and the BALF was collected for the quantification of inflammatory cells. […]

BalbC mice [2] = experiment: Inflammatory cell infiltration in BALF of OVA-sensitised mice; type: in vivo, mouse; details: nebulised 3 micromolar
Method: FIG. 14. The calcilytic NPS89636 reduces inflammatory cell infiltration detected in the bronchioalveolar lavage fluid (BALF) from mice sensitized with OVA. 24 hours following the OVA sensitisation and nebulisation protocol described in detail in FIG. 13 in the presence of NS89636 (3 micromolar) or vehicle (0.3% DMSO), mice were killed and the BALF was collected by lavage. Cells from BALF were counted the same day using a haematocytometer. For differential cell count, BALF was concentrated by centrifugation 10 times, 100 microliters of the final solution was applied to a Cytospin 3 Shandon cell smearing system. The slides then were submerged into 1.5% Leisman stain in methanol for 6 min, then briefly washed in water twice, allowed to dry overnight, and the cells counted using 100× oil immersion objective. Data are presented as mean±S.E.M. Significant differences between vehicle and calcilytic are indicated, p<0.05, n=11.
Effect of the Calcilytic NPS 89636 on Inflammatory Cell Infiltration in the BALF of OVA-Sensitised Mice and LPS-Treated Guinea Pigs.
For the asthma model, OVA-sensitized mice were killed by a lethal overdose of sodium pentobarbitone (Euthatal), then using a cannula 1 ml of PBS was instilled into the lungs via an incision in the trachea. […]

SMILES: CCc1ccc(CC(C)(C)NCC(O)COc2cc(-c3ccc(C(=O)O)cc3)ccc2C#N)c(F)c1.Cl (stereo in doubt) [NPS89636, (S)-4′-cyano-3′-[3-[2-(4-ethyl-2-fluorophenyl)-1,1-dimethylethylamino]-2-hydroxy-propoxy]-biphenyl-4-carboxylic acid hydrochloride]
- Effect on methacholine-induced BHR in OVA-sensitised, OVA-challenged mice (BalbC mice [1]): completely abolished
- Effect on OVA-evoked inflammatory cell infiltration into the lung (BALF) (BalbC mice [2]): reduced
